Key:
[1] = system: E-cadherin in MDA-MB-231 cells; experiment: E-cadherin expression (RT-PCR, Western blot); format: cell-based, human; details: 100 μM, 3, 6 or 12 h; for E-cadherin mRNA expression: RT-PCR; for E-cadherin protein level: Western blot
Experimental: The cells were treated with vehicle (black) or 100 μM IPA/NO-aspirin (blue) or DEA/NO-aspirin (green) for 3, 6 or 12 h at 37° C. Relative mRNA expression was measured using RT-PCR techniques. E-cadherin mRNA were quantified with respect to control (1).
The cells were treated with vehicle (black) or 100 μM IPA/NO-aspirin (blue) or DEA/NO-aspirin (green) for 3, 6 or 12 h at 37° C. Protein expression was measured using Western blot techniques. E-cadherin protein levels were quantified with respect to control (100%).
Epithelial cadherin (E-cadherin) is calcium-dependent, membrane-associated cellular adhesion glycoprotein. Loss of E-cadherin-mediated cellular adhesion is a prerequisite for invasion and metastasis of tumor cells. NO is an endogenous mediator of endothelial cell migration. […] However, the effect of HNO on metastasis has not been studied. […] This can result in a reversal of tumor cells from an invasive, mesenchymal, to a benign, epithelial phenotype.

[2] = system: HUVECs; experiment: Tube formation (angiogenesis) in Matrigel; format: cell-based, human; details: 12 hours, 1 and 10 μM, vs control
Experimental: Cells in Matrigel were treated with A) DMSO, B) 1 μM or C) 10 μM IPA/NO-aspirin, D) 1 μM or E) 10 μM DEA/NO-aspirin at 37° C., and the extent of tube formation was measured after 12 h using a microscope.
The impact of the NONO-aspirin prodrugs on tube formation in HUVECs after 12 hours treatment was examined as a measure of angiogenesis.

[3] = system: caspase-3; experiment: Caspase-3 activity in breast cancer cells; format: cell-based, human; details: MDA-MB-231, MDA-MB-468, MCF-7; 0-100 μM, 24 h, 37° C.
Experimental: The cells were treated with various concentrations (0, 25, 50, 100 μM) of IPA/NO-aspirin (blue) or DEA/NO-aspirin (green) for 24 h at 37° C. Caspase-3 activity was determined by recording the fluorescence ( ? 485 nm, ? 535 nm) of the product formed by cleavage of the substrate, N-Ac-DEVD-N′-MC-R11. Data are plotted as mean±SD (n=3).
Caspases are cysteine-aspartate proteases that can trigger apoptosis through a signaling cascade. Caspase-3 is an effector protease that has active cysteine residues that are susceptible to S-nitrosation. The impact of this modification has been variously reported to lead to reversible inhibition and to activation.

[4] = system: MCF-10A cells; experiment: MTT cell viability; format: cell-based, human; details: read-out: concentration for 50% reduction of viability (IC50), 48 h, did not reach a 50% reduction at 200 μM
Experimental: (§1) Figures are representative of three trials with data plotted as mean percentage versus untreated cells±SD of the four replicates per plate). Vehicle (DMSO or 10 mM NaOH) was added as a control to otherwise untreated cells.
(§2) For examples utilizing cell culture methods, the following procedure was instituted. Human breast adenocarcinoma cells (MDA-MB-231, MCF-7 and MDA-MB-468; American Type Culture Collection, Manassas, Va.) were grown as monolayers in RPMI 1640 (Invitrogen, Carlsbad, Calif.) supplemented with 10% FBS (Hyclone, Thermo Fisher Scientific Inc., Waltham, Mass.), penicillin (50 units mL^−1) and streptomycin ([…]; Life Technologies, Inc., Grand Island, N.Y.). Non-tumorigenic, human breast epithelial cells (MCF-10A; American Type Culture Collection) and HUVECs (Cell Applications, Inc., San Diego, Calif.) were grown as monolayers in endothelial growth media (Lonza Inc., US-Allendale, N.J. or Cell Applications, Inc., San Diego, Calif.). Cells were seeded at a density of 1×10^6 cells per 100 cm^2 culture dish and were incubated at 37° C. in 5% CO2 at 80% relative humidity. Single-cell suspensions were obtained by trypsinization (0.05% trypsin/EDTA, Invitrogen, Carlsbad, Calif.). MDA-MB-231 cells stably transfected with green fluorescent protein (GFP) and G418 antibiotic resistance gene were a generous gift from Dr. Aldona Karaczyn from the Maine Medical Center Research Institute, Scarborough, Me. MDA-MB-231-GFP cells were grown as described for MDA-MB-231 cells with the addition of […] ([…]) to ensure vector presence.
(§3) In this example, the impact of IPA/NO-aspirin and DEA/NO-aspirin was assessed compared to aspirin or the parent diazeniumdiolate on proliferation of four human breast cell lines: MDA-MB-231 (ER(−) adenocarcinoma), MDA-MB-468 (ER(−) adenocarcinoma), MCF-7 (ER(+) adenocarcinoma) and MCF-10A (non-tumorigenic, immortalized human breast epithelial cells).

[5] = system: MCF-7 cells; experiment: MTT cell viability; format: cell-based, human; details: read-out: concentration for 50% reduction of viability (IC50), MCF-7, 48 h, mean ± SD for three trials
Experimental: as §1, §2, §3

[6] = system: MDA-MB-231 cells; experiment: MTT cell viability; format: cell-based, human; details: read-out: concentration for 50% reduction of viability (IC50), MDA-MB-231, 48 h, mean ± SD for three trials
Experimental: as §1, §2, §3

[7] = system: MDA-MB-468 cells; experiment: MTT cell viability; format: cell-based, human; details: read-out: concentration for 50% reduction of viability (IC50), MDA-MB-468, 48 h, mean ± SD for three trials
Experimental: as §1, §2, §3

[8] = Stability in phosphate buffer pH 7.4; format: physicochemical
Experimental: The newly synthesized HNO-releasing aspirin (IPA/NO-aspirin, 4) and NO-releasing aspirin (DEA/NO-aspirin, 8) were evaluated for the kinetic profile of NO and HNO release in buffer and cells.

[9] = system: HUVECs; experiment: Cytotoxicity toward HUVECs; format: cell-based, human; details: previously determined
[10] = system: MDA-MB-231 xenografts; experiment: MDA-MB-231-GFP xenograft growth and brain metastasis in nude mice; format: in vivo; details: daily injection of equimolar doses for five weeks; for size of the primary tumor (GFP fluorescence intensity, tumor mass): vs control
Experimental: The cells were allowed to grow for 14 d, and the animals (40) were randomly divided into four groups (control, aspirin, IPA/NO-aspirin or DEA/NO-aspirin). Treated groups were injected daily with equimolar doses of DEA/NO-aspirin or IPA/NO-aspirin (16 mg kg^−1) or aspirin (9 mg kg^−1)) or with DMSO for the next five weeks.
For examples utilizing mouse tumor model methods, the following procedure was instituted. Analysis of tumor growth was carried out using protocols approved by the Committee on the Ethics of Animal Experiments of the National Cancer Institute (RBB-144) and adhered with the recommendations in the United States National Research Council's “Guide for the Care and Use of Laboratory Animals,” the United States Public Health Service's “Guide for the Care and Use of Laboratory Animals” and the “Policy on Humane Care and Use of Laboratory Animals”. The vivarium was maintained at 23° C. on a 12 h light/12 h dark cycle with ad libitum access to food and water. Nude mice (n=40) under general anesthesia were implanted with 7.5×10^5 MDA-MB-231 cells transfected with GFP by injection underneath the fourth left mammary gland. Prior to implantation, pedal withdrawal and eyelid reflexes were examined to ensure that mice were under stage III of anesthesia. At 14 days post-inoculation, the mice were randomly divided into four groups and treated by daily injection of equimolar doses (10 μL of 100 mM stock) of aspirin (9.00 mg kg^−1), IPA/NO-aspirin (15.8 mg kg^−1) or DEA/NO-aspirin (16.3 mg kg^−1) or with vehicle (DMSO). After five weeks, the tumor size was measured using in vivo fluorescent imaging for quantification of the GFP tag. In brief, mice were under general anesthesia throughout the whole body imaging process, and GFP signals were captured and quantified in an Xenogen IVIS 100 Imaging System according to the manufacturer's protocol. To assess metastasis in the brain, the animals were subsequently sacrificed following the approved method and guidelines.

[11] = system: lung carcinoma cells; details: selective compared to normal endothelial cells, read-out: IC50 (proliferation); cited from earlier work
[12] = Prodrug decomposition in cells; format: in vitro ADME; details: A549 cells

## CCN(CC)[N+]([O-])=NOCOC(=O)c1ccccc1OC(C)=O [DEA/NO-aspirin, O2-(Acetylsalicyloyloxymethyl)-1-(N,N-Diethylamino)-diazen-1-ium-1,2-diolate]
[1]
  E-cadherin mRNA expression: did increase E-cadherin expression in a time-dependent manner
  E-cadherin protein level: did increase E-cadherin expression in a time-dependent manner
[2]
  angiogenesis (tube formation): reduced angiogenesis
[3]
  caspase-3 activity: more modest in MDA-MB-231 and MCF7 cells
[4]
  IC50: > 200 µM
[5]
  IC50: 122 ± 3 µM
[6]
  IC50: 102 ± 10 µM
[7]
  IC50: 90 ± 4 µM
[8]
  stability in buffer: relatively stable in phosphate buffer pH 7.4 for several hours
[9]
  cytotoxicity toward HUVECs: neither IPA/NO-aspirin or DEA/NO-aspirin are appreciably cytotoxic
[10]
  metastasis to the brain (GFP fluorescence): decreased metastasis compared to aspirin and untreated controls, the results were not statistically significant
  size of the primary tumor (GFP fluorescence intensity, tumor mass): substantial, although not statistically significant, reduction
[11]
  IC50: 100 µM
[12]
  lifetime in cells relative to IPA/NO-aspirin: about three times longer-lived

## CC(=O)Oc1ccccc1C(=O)OCON=[N+]([O-])NC(C)C [IPA/NO-aspirin, O2-(Acetylsalicyloyloxymethyl)-1-(N-isopropylamino)-diazen-1-ium-1,2-diolate]
[1]
  E-cadherin mRNA expression: does not show any significant change
  E-cadherin protein level: does not show any significant change
[2]
  angiogenesis (tube formation): reduced angiogenesis
[3]
  caspase-3 activity: activated caspase-3 in all three breast cancer lines
[4]
  IC50: > 200 µM
[5]
  IC50: 93 ± 2 µM
[6]
  IC50: 92 ± 1 µM
[7]
  IC50: 81 ± 2 µM
[8]
  stability in buffer: relatively stable in phosphate buffer pH 7.4 for several hours
[9]
  cytotoxicity toward HUVECs: neither IPA/NO-aspirin or DEA/NO-aspirin are appreciably cytotoxic
[10]
  metastasis to the brain (GFP fluorescence): decreased metastasis compared to aspirin and untreated controls, the results were not statistically significant
  size of the primary tumor (GFP fluorescence intensity, tumor mass): significant decrease
[11]
  IC50: 100 µM
[12]
  time to complete decomposition in cells: approximately 3 hours

Reference: patent US10213445B2, “Compositions and methods of diazeniumdiolate-based prodrugs for treating cancer” (ARIZONA BOARD OF REGENTS ON BEHALF OF THE UNIVERSITY OF …, priority 2014, dated 2019)
